Drawing on patent publication US20260327243A1, “SPIRO-HETEROCYCLIC INHIBITORS OF KRAS G12C MUTANT PROTEINS AND USES THEREOF” (AMGEN INC., priority 2023, published 2026), this text covers IC50 for ten molecules.

Each structure is given as a SMILES string.

For orientation: IC50 means the concentration needed to halve the response being measured. A high value points to a need for much substance.

Sequence of KRAS^G12C (P01116 1-169 isoform P01116-2 G12C/C118A): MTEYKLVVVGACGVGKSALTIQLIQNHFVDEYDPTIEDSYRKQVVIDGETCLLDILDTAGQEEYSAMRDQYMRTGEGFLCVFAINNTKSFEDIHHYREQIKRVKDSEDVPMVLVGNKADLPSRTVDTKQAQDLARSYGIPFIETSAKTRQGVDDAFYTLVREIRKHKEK

The target of this assay is KRAS^G12C (Homo sapiens, UniProt P01116, C118A/G12C). Briefly: Coupled Nucleotide Exchange Assay. It counts as biochemical. As to conditions: GDP-bound KRAS (aa 1-169) G12C/C118A; 2 h compound pre-incubation; SOS-mediated exchange, 30 min; cRAF binding (AlphaLISA). The protocol:
The KRAS^G12C coupled nucleotide exchange assay allows for the screening and profiling of KRAS^G12C antagonists/inhibitors by monitoring the binding of an effector protein (e.g., a Ras binding domain of Raf1, RBD-cRaf) to KRAS^G12C. Purified GDP-bound KRAS protein (aa 1-169), containing both G12C and C118A amino acid substitutions and an N-terminal His-tag, was pre-incubated in assay buffer (25 mM HEPES pH 7.4, 10 mM MgCl2, 0.01% Triton X-100, either with or without 0.1% BSA) with serially diluted compound for 2 h. For all subsequent steps, BSA was omitted and DTT was added to the reaction buffer at a final concentration of 1 mM. Following compound pre-incubation, purified SOS protein (aa 564-1049) and GTP (Roche 10106399001) were added to the assay wells and incubated for an additional 30 min. To determine the extent of inhibition of SOS-mediated nucleotide exchange, purified GST-tagged cRAF (aa 1-149), nickel chelate AlphaLISA acceptor beads (PerkinElmer AL108R), and AlphaScreen glutathione donor beads (PerkinElmer 6765302) were added to the assay wells and incubated for 5-30 min. The assay plates were then read on a plate reader measuring luminescence signal. Signal intensity of compound-containing wells were normalized to DMSO control, and data were analyzed using a 4-parameter logistic model to calculate IC50 values.
In turn, `C=CC(=O)N1CCN(C2CN(c3cc(N4C5CCC4CC4(CCCO4)C5)nc(C(F)F)c3C)C2)CC1` (stereo not shown) [Compound 3-071, 1-(4-(1-(2-(difluoromethyl)-6-(dihydro-3′H-8-azaspiro[bicyclo[3.2.1]octane-3,2′-furan]-8-yl)-3-methylpyridin-4-yl)azetidin-3-yl)piperazin-1-yl)prop-2-en-1-one] displayed an IC50 of 2990 nM.

The molecule `C=CC(=O)N1CCN(C2(C)CN(c3cc(N4CCC5(CC4)OCc4ccccc45)nc(C(F)(F)F)n3)C2)CC1` [Compound 3-027, 1-(4-(1-(6-(3H-spiro[isobenzofuran-1.4′-piperidin]-1′-yl)-2-(trifluoromethyl)pyrimidin-4-yl)-3-methylazetidin-3-yl)piperazin-1-yl)prop-2-en-1-one] displayed an IC50 of 6150 nM.

As for `C=CC(=O)N1CCN([C@@H]2CN(c3cc(N4CCC5(CC4)OCC=C5C)nc(C(F)F)n3)[C@@H]2C)CC1` [Compound 3-050, 1-(4-((2R,3R)-1-(2-(Difluoromethyl)-6-(4-methyl1-oxa-8-azaspiro[4.5]dec3-en-8-yl)pyrimidin-4-yl)-2-methylazetidin-3-yl)piperazin-1-yl)prop2-en-1-one], the IC50 was 825 nM.

`C=CC(=O)N1CCN(C2CN(c3cc(N4CCC5(CC4)OCC4CC45)nc(C(F)(F)F)c3C#N)C2)CC1` (stereo not shown) [Compound 3-042, 4-(3-(4-acryloylpiperazin-1-yl)azetidin-1-yl)-6-(3-oxaspiro[bicyclo[3.1.0]hexane-2,4′-piperidin]-1′-yl)-2-(trifluoromethyl)nicotinonitrile] had a concentration for half-maximal inhibition (IC50) of 5120 nM.

With `C=CC(=O)N1CCN(C2CN(c3cc(N4CCC5(CCCO5)[C@H](CO)C4)nc(C(F)(F)F)c3C#N)C2)CC1` (single isomer, unassigned) [Compound 3-062-1], the concentration for half-maximal inhibition (IC50) turned out to be 4660 nM. This IC50 and that of the molecule before are within 1.5-fold of each other.

In turn, `C=CC(=O)N1CCN([C@@H]2CN(c3cc(N4CCC5(C[C@@H]4C)OCC=C5C)nc(C(F)(F)F)n3)[C@@H]2C)CC1` (stereo partly drawn) [Compound 3-006, 1-(4-((2R,3R)-1-(6-(4,7-dimethyl-1-oxa-8-azaspiro[4.5]dec-3-en-8-yl)-2-(trifluoromethyl)pyrimidin-4-yl)-2-methylazetidin-3-yl)piper-azin-1-yl)prop-2-en-1-one] had an IC50 of 2240 nM.

Regarding `C=CC(=O)N1CCN([C@@H]2CN(c3cc(N4CCC5(CC4)C(C)=CCN5C)nc(C(F)(F)F)n3)[C@@H]2C)CC1` [Compound 3-055, 1-(4-((2R,3R)-1-(6-(1,4-Dimethyl-1,8-diazaspiro[4.5]dec-3-en-8-yl)-2-(trifluoromethyl)pyrimidin-4-yl)-2-methylazetidin-3-yl)piperazin-1-yl)prop-2-en1-one], the IC50 is 1320 nM. Against the preceding molecule, the IC50 is about 1.7-fold lower.

Molecule `C=CC(=O)N1CCN(C2CN(c3cc(N4CCC5(CC4)OCc4cnn(C)c45)nc(C(F)(F)F)n3)C2)CC1` [Compound 3-047, 1-(4-(1-(6-(1-methyl-1,4-dihydrospiro[furo[3,4-c]pyrazole-6,4′-piperidin]-1′-yl)-2-(trifluoromethyl)pyrimidin-4-yl)azetidin-3-yl)piperazin-1-yl)prop-2-en-1-one] had a half-inhibitory concentration (IC50) of 2690 nM.

Turning to `C=CC(=O)N1CCN([C@@H]2CN(c3cc(N4CCC5(CC4)COc4nccc(C)c45)nc(C(F)(F)F)n3)[C@@H]2C)CC1` [Compound 3-092, 1-(4-((2R,3R)-2-methyl-1-(6-(4-methyl-1′H-spiro[furo[2,3-b]pyridine-3,4′-piperidin]-1′-yl)-2-(trifluoromethyl)-4-pyrimidinyl)-3-azetidinyl)-1-piperazinyl)-2-propen-1-one], the IC50 was 2400 nM. This IC50 and that of the molecule before are within 1.5-fold of each other.

For `C=CC(=O)N1CCN(C2CN(c3cc(N4CCC5(CC4)OCCC5=O)nc(C(F)(F)F)c3C#N)C2)CC1` [Compound 3-031, 4-(3-(4-acryloylpiperazin-1-yl)azetidin-1-yl)-6-(4-oxo-1-oxa-8-azaspiro[4.5]decan-8-yl)-2-(trifluoromethyl)nicotinonitrile], the IC50 stood at 9250 nM.
